Experimental data reported in PubChem BioAssay AID254 (DTP/NCI, 2004).
Several values for one entry are separate records, joined by “and”; a condition that tells them apart may be missing. Identical values can stand only once. Inconclusive results and toxic doses are left out.

Tested on: L1210 leukemia iv in BDF1 mice, survival T/C
Test: NCI In Vivo Anticancer Drug Screen. Data for tumor model L1210 Leukemia (intravenous) in B6D2F1 (BDF1) mice
Conditions: endpoint: mean survival time, higher = longer survival
Method: The antitumor activity of compounds was measured in mice bearing transplantable tumors. Survival or tumor size were measured and the results are expressed as the measurement made in the treated group (T) divided by the measurement made in the vehicle treated control group (C). The tumor model used in this assay is L1210 Leukemia (intravenous) in B6D2F1 (BDF1) mice

| Compound | T/C (dose: 25.0 mg/kg/injection, schedule: Q01DX001 (ip), vehicle: carboxymethylcellulose (CMC)) | T/C (dose: 51.0 mg/kg/injection, schedule: Q01DX001 (ip), vehicle: carboxymethylcellulose (CMC)) | T/C (dose: 101.0 mg/kg/injection, schedule: Q01DX001 (ip), vehicle: carboxymethylcellulose (CMC)) | T/C (dose: 203.0 mg/kg/injection, schedule: Q01DX001 (ip), vehicle: carboxymethylcellulose (CMC)) | T/C (dose: 4.8 mg/kg/injection, schedule: Q01DX001 (oral), vehicle: other) | T/C (dose: 6.0 mg/kg/injection, schedule: Q01DX001 (ip), vehicle: other) | T/C (dose: 11.0 mg/kg/injection, schedule: Q01DX001 (oral), vehicle: other) | T/C (dose: 12.0 mg/kg/injection, schedule: Q01DX001 (ip), vehicle: other) | T/C (dose: 21.0 mg/kg/injection, schedule: Q01DX001 (oral), vehicle: other) | T/C (dose: 24.0 mg/kg/injection, schedule: Q01DX001 (ip), vehicle: other) | T/C (dose: 40.0 mg/kg/injection, schedule: Q01DX001 (oral), vehicle: other) | T/C (dose: 48.0 mg/kg/injection, schedule: Q01DX001 (ip), vehicle: other) |
| --- | --- | --- | --- | --- | --- | --- | --- | --- | --- | --- | --- | --- |
| O=NN(CCCl)C(=O)N[C@H]1CCCC[C@H]1Cl | 190 % of control and 262 % of control | 427 % of control and 435 % of control | 588 % of control and 767 % of control | 111 % of control and 202 % of control |  |  |  |  |  |  |  |  |
| O=NN(CCF)C(=O)NC1CCS(=O)(=O)CC1 |  |  |  |  | 185 % of control and 225 % of control | 190 % of control and 213 % of control | 429 % of control and 504 % of control | 365 % of control and 518 % of control | 562 % of control and 817 % of control | 620 % of control and 688 % of control | 436 % of control and 569 % of control | 517 % of control and 590 % of control |
